Results from PubChem BioAssay (NCI).
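How tested: cells in 96-well plates exposed to compound for 48 hours at five concentrations. TGI: total growth inhibition.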

Assays:
Experiment in all cases: DTP human tumour cell line panel, 48 h
SK-MEL-5 melanoma = system: SK-MEL-5 melanoma
MDA-MB-435 = system: MDA-MB-435
A498 renal = system: A498 renal
CCRF-CEM leukemia = system: CCRF-CEM leukemia
TK-10 renal = system: TK-10 renal
SNB-19 CNS = system: SNB-19 CNS
SK-MEL-2 melanoma = system: SK-MEL-2 melanoma
EKVX NSCLC = system: EKVX NSCLC
SF-268 CNS = system: SF-268 CNS
SF-539 CNS = system: SF-539 CNS

| Structure (SMILES) | TGI (SK-MEL-5 melanoma) | TGI (MDA-MB-435) | TGI (A498 renal) | TGI (CCRF-CEM leukemia) | TGI (TK-10 renal) | TGI (SNB-19 CNS) | TGI (SK-MEL-2 melanoma) | TGI (EKVX NSCLC) | TGI (SF-268 CNS) | TGI (SF-539 CNS) |
| --- | --- | --- | --- | --- | --- | --- | --- | --- | --- | --- |
| Cc1ccc(SC[C@@]2(C(F)F)NC(=O)NC2=O)cc1 | > 100 µM | > 100 µM | > 100 µM | > 100 µM | > 100 µM | > 100 µM | > 100 µM | > 100 µM | > 100 µM | – |
| CC(=O)CC(C)(C)NC(=O)[C@@]1(O)CC[C@H]2[C@@H]3CCC4=CC(=O)CC[C@@H]4[C@H]3CC[C@@]21C | > 100 µM | > 100 µM | > 100 µM | > 100 µM | > 100 µM | > 100 µM | > 100 µM | > 100 µM | > 100 µM | > 100 µM |
| N#CC1(c2ccccc2)CCN(C2(c3ccccc3)CCCCC2)CC1 | > 100 µM | > 100 µM | – | > 100 µM | > 100 µM | > 100 µM | > 100 µM | > 100 µM | > 100 µM | – |
| CC1C2CC(C/C2=N/O)C1(C)C (centres undefined) | > 100 µM | > 100 µM | > 100 µM | > 100 µM | > 100 µM | > 100 µM | – | > 100 µM | > 100 µM | > 100 µM |
| COc1cc2c(cc1C)NC(=O)/C2=C\c1ccncc1 | 8.47 µM | 20 µM | – | > 100 µM | 21.4 µM | 21.6 µM | 10.1 µM | 25.8 µM | 56.9 µM | 8.45 µM |
| COc1ccc2c(c1OC)C(=O)O[C@@H]2[C@H]1c2cc3c(cc2CCN1C)OCO3 | > 100 µM | > 100 µM | > 100 µM | – | > 100 µM | > 100 µM | > 100 µM | > 100 µM | > 100 µM | > 100 µM |
| CCN1CCCC(Nc2cc(C)nc(/N=C(/N)Nc3ccc(Cl)c(Cl)c3)n2)C1 (centres undefined) | 5.35 µM | 2.89 µM | – | 2.4 µM | 3.22 µM | 5.59 µM | 4.04 µM | 11.4 µM | 5.63 µM | 3.66 µM |
| O=C1CCC2(O)C3Cc4ccc(Oc5nnnn5-c5ccccc5)c5c4C2(CCN3CC2CC2)C1O5 (centres undefined) | 25.9 µM | 37 µM | 90.1 µM | 47.4 µM | > 100 µM | > 100 µM | 53.1 µM | > 100 µM | > 100 µM | – |
| CC(=O)Nc1ccc(C(=O)N2N=C(C)/C(=C/c3cccc([N+](=O)[O-])c3)C2=O)cc1 | > 100 µM | – | – | > 100 µM | > 100 µM | > 100 µM | – | > 100 µM | > 100 µM | > 100 µM |
| CCCCCn1c(=O)c2c(=O)[nH][nH]c2c2ccccc21 | > 100 µM | > 100 µM | > 100 µM | > 100 µM | > 100 µM | – | > 100 µM | – | > 100 µM | > 100 µM |
| CCC(=O)NC(OCC1(CC)COC1)(C(F)(F)F)C(F)(F)F | – | > 100 µM | > 100 µM | > 100 µM | > 100 µM | > 100 µM | > 100 µM | > 100 µM | > 100 µM | > 100 µM |
| COC(=O)/C=C/c1cc(OC)c2oc(-c3ccc(OC)c(OC)c3)c(C(=O)OC)c2c1 | > 100 µM | > 100 µM | > 100 µM | > 100 µM | > 100 µM | > 100 µM | > 100 µM | > 100 µM | > 100 µM | – |
| C/C=C/[C@H]1O[C@@](O)([C@@H](C)[C@H](O)[C@H](C)[C@H]2OC(=O)/C(OC)=C/C(C)=C/[C@@H](C)[C@@H](O)[C@@H](CC)[C@@H](O)[C@H](C)C/C(C)=C/C=C/[C@@H]2OC)C[C@H](OC2CC(O)C(OC(N)=O)C(C)O2)[C@@H]1C (some centres undefined) | 0.231 µM | 14.8 µM | 33.1 µM | 0.723 µM | 31.7 µM | 23.7 µM | 3.22 µM | 20.5 µM | 25 µM | – |
| CCCCc1ccc(-n2sc3ncccc3c2=O)cc1 | 26.4 µM | 37.5 µM | – | – | 27.4 µM | > 100 µM | 43.9 µM | 25.2 µM | 47.4 µM | 41 µM |
| CC(C)=Nn1cnc(C(=N)C#N)c1N | – | – | – | > 100 µM | > 100 µM | > 100 µM | > 100 µM | > 100 µM | > 100 µM | > 100 µM |
| S=C(N/N=C\c1ccccn1)N(Cc1ccccn1)Cc1ccccn1 | 16.8 µM | 41.8 µM | – | > 100 µM | 17.6 µM | 21.9 µM | 37.9 µM | 17.2 µM | 30.9 µM | > 100 µM |
| CN1Cc2c(nc(-c3ccc(Br)cc3)c[n+]2[O-])N(C)C1 | > 100 µM | – | > 100 µM | > 100 µM | – | > 100 µM | > 100 µM | > 100 µM | > 100 µM | > 100 µM |
| CCOC(=O)c1c(NCc2ccccc2)n(-c2ccccc2)c(=S)n(-c2ccccc2)c1=O | > 100 µM | > 100 µM | – | > 100 µM | > 100 µM | > 100 µM | > 100 µM | – | > 100 µM | – |
| CCNc1ncnc2c1nnn2CC | > 100 µM | > 100 µM | > 100 µM | > 100 µM | > 100 µM | > 100 µM | > 100 µM | > 100 µM | – | > 100 µM |
| N#CC12C(=O)N3C(=NC(c4ccccc4)NC3c3ccccc3)C1(C#N)C(c1ccccc1)NC1=C2CCCC1 (centres undefined) | > 100 µM | > 100 µM | > 100 µM | 77.8 µM | > 100 µM | > 100 µM | > 100 µM | > 100 µM | > 100 µM | – |
| CC1=NN(C(=O)c2ccc(Cl)cc2)C(=O)/C1=C/c1ccc(Cl)cc1 | > 100 µM | – | > 100 µM | > 100 µM | > 100 µM | > 100 µM | > 100 µM | > 100 µM | > 100 µM | > 100 µM |
| Nc1ccc(C(=O)NN2C(=O)C(Cl)C2c2cccc(O)c2)cc1 (centres undefined) | 31.7 µM | – | 58.1 µM | 28.9 µM | 30.5 µM | 30.5 µM | 30.5 µM | 46.6 µM | 17 µM | 31.6 µM |
